Measurements as given in PubChem BioAssay AID248 (DTP/NCI, 2004).
Where “and” joins values, the source holds several entries; their conditions need not be identical. Identical values can stand only once. Toxic doses and inconclusive results are not listed. Cut-off read from the data, not from the text of the source: active = T/C of 150% or more; inactive = T/C below 125%.

System: L1210 leukemia ip in BDF1 mice, survival T/C
Experiment: NCI In Vivo Anticancer Drug Screen. Data for tumor model L1210 Leukemia (intraperitoneal) in B6D2F1 (BDF1) mice
Details: endpoint: mean survival time, higher = longer survival
In short: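 In this screen, tumor-bearing mice given compound are compared to those given vehicle, and their survival values are reported as a treated-to-control quotient.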

[1] = dose: 100.0 mg/kg/injection, schedule: Q01DX009 (ip), vehicle: Klucel (hydroxypropylcellulose) (HPC)
[2] = dose: 200.0 mg/kg/injection, schedule: Q01DX009 (ip), vehicle: Klucel (hydroxypropylcellulose) (HPC)
[3] = dose: 400.0 mg/kg/injection, schedule: Q01DX009 (ip), vehicle: Klucel (hydroxypropylcellulose) (HPC)
[4] = dose: 50.0 mg/kg/injection, schedule: Q01DX001 (ip), vehicle: carboxymethylcellulose (CMC)
[5] = dose: 100.0 mg/kg/injection, schedule: Q01DX001 (ip), vehicle: carboxymethylcellulose (CMC)
[6] = dose: 200.0 mg/kg/injection, schedule: Q01DX001 (ip), vehicle: carboxymethylcellulose (CMC)
[7] = dose: 400.0 mg/kg/injection, schedule: Q01DX001 (ip), vehicle: carboxymethylcellulose (CMC)
[8] = dose: 100.0 mg/kg/injection, schedule: Q04DX002 (ip), vehicle: Klucel (hydroxypropylcellulose) (HPC)
[9] = dose: 200.0 mg/kg/injection, schedule: Q04DX002 (ip), vehicle: Klucel (hydroxypropylcellulose) (HPC)
[10] = dose: 400.0 mg/kg/injection, schedule: Q04DX002 (ip), vehicle: Klucel (hydroxypropylcellulose) (HPC)
[11] = dose: 100.0 mg/kg/injection, schedule: Q01DX009 (ip), vehicle: saline with Tween-80
[12] = dose: 200.0 mg/kg/injection, schedule: Q01DX009 (ip), vehicle: saline with Tween-80
[13] = dose: 400.0 mg/kg/injection, schedule: Q01DX009 (ip), vehicle: saline with Tween-80
[14] = dose: 100.0 mg/kg/injection, schedule: Q01DX009 (ip), vehicle: saline
[15] = dose: 200.0 mg/kg/injection, schedule: Q01DX009 (ip), vehicle: saline
[16] = dose: 100.0 mg/kg/injection, schedule: Q01DX001 (ip), vehicle: saline
[17] = dose: 200.0 mg/kg/injection, schedule: Q01DX001 (ip), vehicle: saline

Measured: T/C

CC(=O)OC1=C(CC=C(C)C)C(=O)c2ccccc2C1=O
inactive: dose: 50.0 mg/kg/injection, schedule: Q01DX001 (ip), vehicle: water 97 % of control | dose: 100.0 mg/kg/injection, schedule: Q01DX001 (ip), vehicle: water 95 % of control | dose: 200.0 mg/kg/injection, schedule: Q01DX001 (ip), vehicle: water 100 % of control | dose: 400.0 mg/kg/injection, schedule: Q01DX001 (ip), vehicle: water 104 % of control

C=C(C)COP(=O)(OCC(=C)C)OCC(=C)C
inactive: [1] 97 % of control | dose: 100.0 mg/kg/injection, schedule: Q04DX003 (ip), vehicle: Klucel (hydroxypropylcellulose) (HPC) 97 % of control | [2] 100 % of control | dose: 200.0 mg/kg/injection, schedule: Q04DX003 (ip), vehicle: Klucel (hydroxypropylcellulose) (HPC) 100 % of control | [3] 103 % of control | dose: 400.0 mg/kg/injection, schedule: Q04DX003 (ip), vehicle: Klucel (hydroxypropylcellulose) (HPC) 92 % of control

O=P(N(CCCl)CCCl)(N1CCCCC1)N1CCCCC1
inactive: dose: 50.0 mg/kg/injection, schedule: Q01DX Z (ip), vehicle: saline 86 % of control | dose: 100.0 mg/kg/injection, schedule: Q01DX Z (ip), vehicle: saline 88 % of control | dose: 200.0 mg/kg/injection, schedule: Q01DX Z (ip), vehicle: saline 90 % of control

O=C(Nc1cccc2ccccc12)c1ccccc1O
inactive: [4] 113 % of control | [5] 108 % of control | [6] 96 % of control | [7] 116 % of control

O=C(O)CCc1nc2ccccc2[nH]1
inactive: dose: 75.0 mg/kg/injection, schedule: Q01DX009 (ip), vehicle: Klucel (hydroxypropylcellulose) (HPC) 107 % of control | dose: 150.0 mg/kg/injection, schedule: Q01DX009 (ip), vehicle: Klucel (hydroxypropylcellulose) (HPC) 100 % of control | dose: 300.0 mg/kg/injection, schedule: Q01DX009 (ip), vehicle: Klucel (hydroxypropylcellulose) (HPC) 104 % of control

COc1ccc(OC)c(NC(=O)Oc2ccc(NC(C)=O)cc2)c1
inactive: [1] 104 % of control | [2] 102 % of control | [3] 96 % of control

O=C(O)c1cc([N+](=O)[O-])ccc1Cl
inactive: [8] 117 % of control | [9] 103 % of control | [10] 98 % of control

CCN1CCC2CN(C(=S)Nc3ccccc3)CCN2C1=O (centres undefined)
inactive: dose: 100.0 mg/kg/injection, schedule: Q04DX003 (ip), vehicle: saline with Tween-80 97 % of control | dose: 200.0 mg/kg/injection, schedule: Q04DX003 (ip), vehicle: saline with Tween-80 94 % of control | dose: 400.0 mg/kg/injection, schedule: Q04DX003 (ip), vehicle: saline with Tween-80 91 % of control

CC(=O)O[C@@H]1[C@H]2O[C@H]2[C@H]2O[C@@]2(COC(=O)c2ccccc2)[C@H]1OC(C)=O
inactive: dose: 100.0 mg/kg/injection, schedule: Q01DX015 (ip), vehicle: carboxymethylcellulose (CMC) 108 % of control | dose: 200.0 mg/kg/injection, schedule: Q01DX015 (ip), vehicle: carboxymethylcellulose (CMC) 107 % of control | dose: 400.0 mg/kg/injection, schedule: Q01DX015 (ip), vehicle: carboxymethylcellulose (CMC) 90 % of control

Cc1ccc(S(=O)(=O)NC(c2ccccc2)(c2ccccc2)c2ccccc2)cc1
inactive: [11] 96 % of control | dose: 100.0 mg/kg/injection, schedule: Q04DX003 (ip), vehicle: acetone 96 % of control | [12] 88 % of control | dose: 200.0 mg/kg/injection, schedule: Q04DX003 (ip), vehicle: acetone 95 % of control | [13] 93 % of control | dose: 400.0 mg/kg/injection, schedule: Q04DX003 (ip), vehicle: acetone 96 % of control

CC1(C(=O)c2ccccc2)CN(C(C)(C)C)C1c1ccccc1 (centres undefined)
inactive: dose: 50.0 mg/kg/injection, schedule: Q01DX001 (ip), vehicle: Klucel (hydroxypropylcellulose) (HPC) 97 % of control | dose: 100.0 mg/kg/injection, schedule: Q01DX001 (ip), vehicle: Klucel (hydroxypropylcellulose) (HPC) 95 % of control | dose: 200.0 mg/kg/injection, schedule: Q01DX001 (ip), vehicle: Klucel (hydroxypropylcellulose) (HPC) 94 % of control

O=C(/C=C/c1ccc(Cl)c(Cl)c1)c1ccccc1[N+](=O)[O-]
inactive: [1] 103 % of control | [2] 97 % of control | [3] 92 % of control

CCCCCCCCCCCC[n+]1cccc(C)c1
inactive: dose: 5.0 mg/kg/injection, schedule: Q01DX001 (ip), vehicle: saline 94 % of control

CC(=O)C1CCC2C3CCC4(C)CC(=O)CCC4(C)C3C3OC3C12C (centres undefined)
inactive: dose: 100.0 mg/kg/injection, schedule: Q04DX003 (sc), vehicle: steriod suspending solution 98 % of control | dose: 200.0 mg/kg/injection, schedule: Q04DX003 (sc), vehicle: steriod suspending solution 96 % of control | dose: 400.0 mg/kg/injection, schedule: Q04DX003 (sc), vehicle: steriod suspending solution 102 % of control

NC(=O)NC(=O)CC1NC(=O)NC1=O (centres undefined)
inactive: dose: 100.0 mg/kg/injection, schedule: Q04DX002 (ip), vehicle: saline 103 % of control | dose: 200.0 mg/kg/injection, schedule: Q04DX002 (ip), vehicle: saline 106 % of control | dose: 400.0 mg/kg/injection, schedule: Q04DX002 (ip), vehicle: saline 87 % of control

OCC1OC(n2cnc3c2nnn2ccnc32)C(O)C1O (centres undefined)
inactive: dose: 12.5 mg/kg/injection, schedule: Q01DX009 (ip), vehicle: saline 98 % of control | dose: 12.5 mg/kg/injection, schedule: Q04DX002 (ip), vehicle: saline 108 % of control | dose: 25.0 mg/kg/injection, schedule: Q01DX009 (ip), vehicle: saline 101 % of control | dose: 25.0 mg/kg/injection, schedule: Q04DX002 (ip), vehicle: saline 108 % of control | dose: 50.0 mg/kg/injection, schedule: Q01DX009 (ip), vehicle: saline 98 % of control and 107 % of control and 123 % of control | dose: 50.0 mg/kg/injection, schedule: Q04DX002 (ip), vehicle: saline 104 % of control | dose: 75.0 mg/kg/injection, schedule: Q01DX009 (ip), vehicle: saline 100 % of control | dose: 100.0 mg/kg/injection, schedule: Q01DX005 (ip), vehicle: saline 114 % of control | [14] 115 % of control | dose: 115.0 mg/kg/injection, schedule: Q01DX009 (ip), vehicle: saline 104 % of control | dose: 170.0 mg/kg/injection, schedule: Q01DX009 (ip), vehicle: saline 112 % of control | dose: 200.0 mg/kg/injection, schedule: Q01DX005 (ip), vehicle: saline 107 % of control | [15] 120 % of control

CCOC(C#CC1CCCC1)OCC
inactive: dose: 50.0 mg/kg/injection, schedule: Q01DX009 (ip), vehicle: saline with Tween-80 95 % of control | [11] 92 % of control | [12] 100 % of control

CCN(CC)c1ccc(/C=N/Nc2nnc(N/N=C/c3ccc(N(CC)CC)cc3)c3ccccc23)cc1
inactive: dose: 50.0 mg/kg/injection, schedule: Q01DX001 (ip), vehicle: saline 94 % of control | [16] 92 % of control | [17] 105 % of control

C=CCS(=O)(=O)CC=C
inactive: [11] 92 % of control | [12] 92 % of control | [13] 93 % of control

[Mg+2]
inactive: [16] 96 % of control | [14] 95 % of control | dose: 100.0 mg/kg/injection, schedule: Q04DX003 (ip), vehicle: saline 93 % of control | [17] 91 % of control | [15] 95 % of control | dose: 200.0 mg/kg/injection, schedule: Q04DX003 (ip), vehicle: saline 89 % of control | dose: 400.0 mg/kg/injection, schedule: Q01DX001 (ip), vehicle: saline 96 % of control | dose: 400.0 mg/kg/injection, schedule: Q01DX009 (ip), vehicle: saline 97 % of control | dose: 400.0 mg/kg/injection, schedule: Q04DX003 (ip), vehicle: saline 88 % of control

Cc1ccc(Cl)c(NC(=O)c2ccccc2Cl)c1
inactive: [8] 97 % of control | [9] 97 % of control | [10] 104 % of control

Cc1cc(N(CCCl)CCCl)ccc1C=Nc1ccc(S(N)(=O)=O)cc1
inactive: [4] 95 % of control | [5] 104 % of control | [6] 101 % of control | [7] 104 % of control
